Earlier results in patent US20100317666A1, “Composition Comprising An NK-1 Receptor Antagonist And An SSRI For The Treatment Of Tinnitus And Hearing Loss” (Glaxo Group Limited, priority 2006, published 2010).

Columns and labels:
[1] = 8-12 weeks treatment; high dose (up to 50 mg/day)
[2] = iv infusion; transient effect

Fc1ccc([C@@H]2CCNC[C@H]2COc2ccc3c(c2)OCO3)cc1 (relative stereo) [paroxetine, trans-(−)-3-[(1,3-benzodioxol-5-yloxy)methyl]-4-(4-fluorophenyl)piperidine]
effects on tinnitus [1]: Modest effects

CCN(CC)CC(=O)Nc1c(C)cccc1C [lidocaine]
subject responding with tinnitus partial or complete inhibition [2]: up to 60%
